Results from US20240398737A1, “FUNCTIONALIZED LONG-CHAIN HYDROCARBON MONO- AND DI-CARBOXYLIC ACIDS AND DERIVATIVES THEREOF, AND THEIR USE FOR THE PREVENTION OR TREATMENT OF DISEASE” (Espervita Therapeutics, Inc., priority 2021, published 2024).
Entries after “also recorded” stand apart in the source; their conditions may differ.

Columns and labels:
[1] = system: hepatic de novo lipogenesis; assay: Hepatic de novo lipogenesis (14C-glucose) in a murine model of NASH; assay type: in vivo, mouse; conditions: 100 mg/kg as printed in the text (Table 6 prints 60 mg/kg)
TNIK = TNIK (Homo sapiens (Human), UniProt Q9UKE5); assay: Wild type kinase screen: TNIK; assay type: biochemical; conditions: compound at 10 μM, 10 μM ATP, Data 1 and Data 2 duplicates
BMX/ETK = BMX/ETK (Homo sapiens (Human), UniProt P51813); assay: Wild type kinase screen: BMX/ETK; assay type: biochemical; conditions: compound at 10 μM, 10 μM ATP, Data 1 and Data 2 duplicates
[2] = system: UUO-induced renal fibrosis; assay: Murine unilateral ureter obstruction (UUO) renal fibrosis model; assay type: in vivo, mouse; conditions: 100 mg/kg oral gavage daily for 9 days after UUO, mice
Protocol: Animal studies were carried out in accordance with the principles of laboratory animal care of the Canadian Council on Animal Care guidelines. Male C57BL/6 mice were obtained from Charles Rivers Laboratories. FIG. 13A summarizes the timeline for this experiment. UUO model was created as follows: male C57BL6J mice (8 weeks old from Charles River Laboratories) were anesthetized with 4% isofluorane and an anesthetic plane was maintained throughout surgery at 1.5-2% isofluorane with 1 L/min oxygen. A 0.5 cm incision was made longitudinally on the left flank. The left ureter and lower pole of the kidney was exposed, and the ureter was ligated with a 6′0 silk suture in close proximity to the renal pelvis. A sham operation control group was created by surgical exposure of the left ureter and lower pole of the kidney followed by closure of the incision. Subcutaneous fluids were given (1.5 ml 0.9% NaCl) and the incision was closed with 4′0 silk sutures followed by staples for the skin. Starting the day of model creation, the animals were given a daily dose of either vehicle alone (sham surgery and UUO control, 1.5% CMC and 0.2% Tween-20) or vehicle containing Compound I-32 or Compound I-1 (at 100 mg/kg) by oral gavage for 9 days following surgery. At the end of the treatment period mice were anesthetized prior to euthanasia by bilateral thoraco-abdominal incision. Blood was collected by cardiac puncture, followed by kidney perfusion with cold saline through left ventricular cannulation. The left kidney was removed, a sample taken and fixed in formalin for histological analysis. Trichrome staining was done on formalin-fixed sections (4 μm) following deparaffinization according to manufacturer's instructions (Sigma HT15-1KT). Images were quantified by measuring the percentage of positive area using Image J on micrographs captured at x200 magnification using the BX41 Olympus microscope. Statistical analysis was performed using GraphPad Prism 8. A one-way ANOVA was used to determine significance. A p-value of less than or equal to 0.05 was used as the criterion of significance. This route was selected because it simulates oral administration to mammalian, including human, subjects and ensures that the correct dose of compound is ingested by each animal.
Immunohistochemistry. Formalin-fixed kidneys were embedded in paraffin, then sectioned at 4 μm. After deparaffinization, they were stained with Masson's trichrome to assess collagen content (Sigma Aldrich, catalogue no. HT15-1T), picrosirius red (PSR) to more specifically assess pathogenic collagens I and III (Polysciences, Inc., catalogue no. 24901-500), αSMA as a marker of activated, profibrotic fibroblasts (PIERCE, catalogue no. MA1-06110; 30 min steaming for antigen retrieval, antibody used at 1:5000 for 2 h at room temperature), CD3 to identify T-lymphocytes (Dako, catalogue no. A0452; 30 min steaming for antigen retrieval, antibody used at 1:500 overnight at 4° C.) and F4/80 to identify macrophages (done by the McMaster Histology Facility). Slides were counterstained with hematoxylin, dehydrated twice with 90% ethanol, cleared twice with xylene, coverslipped with mounting media, and then left to dry overnight before imaging. Masson's trichrome, αSMA, CD3 and F4/80 were imaged under transmitted light and quantified using ImageJ. The Olympus IX81 fluorescence microscope driven by Metamorph was used to image and quantify PSR staining. Images were quantified by measuring the percentage of positive area. All micrographs were captured at x20 magnification.

GSK3b = GSK3b (Homo sapiens (Human), UniProt P49841); assay: Wild type kinase screen: GSK3b; assay type: biochemical; conditions: compound at 10 μM, 10 μM ATP, Data 1 and Data 2 duplicates
Sequence of GSK3b (P49841 whole entry, species assumed): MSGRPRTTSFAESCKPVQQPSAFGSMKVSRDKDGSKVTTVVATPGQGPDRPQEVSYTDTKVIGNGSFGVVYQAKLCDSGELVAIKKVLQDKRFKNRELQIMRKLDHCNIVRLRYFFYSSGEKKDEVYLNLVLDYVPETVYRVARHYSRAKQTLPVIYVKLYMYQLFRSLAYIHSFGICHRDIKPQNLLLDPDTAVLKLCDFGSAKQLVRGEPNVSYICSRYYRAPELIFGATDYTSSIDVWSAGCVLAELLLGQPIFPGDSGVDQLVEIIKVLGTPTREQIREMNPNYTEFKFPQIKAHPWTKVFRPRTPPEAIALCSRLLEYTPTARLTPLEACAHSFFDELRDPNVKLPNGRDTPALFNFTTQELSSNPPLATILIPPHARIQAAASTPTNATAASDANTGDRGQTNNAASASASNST

Sequence of BMX/ETK (P51813 whole entry): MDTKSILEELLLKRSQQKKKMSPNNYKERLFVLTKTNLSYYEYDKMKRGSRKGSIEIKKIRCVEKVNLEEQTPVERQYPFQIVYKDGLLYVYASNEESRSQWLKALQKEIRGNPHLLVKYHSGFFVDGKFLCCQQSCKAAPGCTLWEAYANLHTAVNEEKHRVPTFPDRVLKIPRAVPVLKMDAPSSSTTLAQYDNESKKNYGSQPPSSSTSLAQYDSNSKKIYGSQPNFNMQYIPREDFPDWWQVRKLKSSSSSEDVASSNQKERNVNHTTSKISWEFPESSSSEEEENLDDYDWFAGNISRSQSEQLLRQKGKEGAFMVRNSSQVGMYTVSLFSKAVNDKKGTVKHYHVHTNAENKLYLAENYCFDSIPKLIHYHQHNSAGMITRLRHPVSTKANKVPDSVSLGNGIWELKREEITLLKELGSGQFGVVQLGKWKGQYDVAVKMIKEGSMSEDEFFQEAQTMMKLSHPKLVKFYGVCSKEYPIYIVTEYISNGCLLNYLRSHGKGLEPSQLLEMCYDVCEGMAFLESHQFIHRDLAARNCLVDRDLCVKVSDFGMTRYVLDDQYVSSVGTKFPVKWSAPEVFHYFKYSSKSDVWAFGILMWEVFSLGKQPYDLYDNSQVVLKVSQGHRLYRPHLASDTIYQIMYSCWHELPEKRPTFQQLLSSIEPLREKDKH
Sequence of TNIK (Q9UKE5 whole entry, species assumed): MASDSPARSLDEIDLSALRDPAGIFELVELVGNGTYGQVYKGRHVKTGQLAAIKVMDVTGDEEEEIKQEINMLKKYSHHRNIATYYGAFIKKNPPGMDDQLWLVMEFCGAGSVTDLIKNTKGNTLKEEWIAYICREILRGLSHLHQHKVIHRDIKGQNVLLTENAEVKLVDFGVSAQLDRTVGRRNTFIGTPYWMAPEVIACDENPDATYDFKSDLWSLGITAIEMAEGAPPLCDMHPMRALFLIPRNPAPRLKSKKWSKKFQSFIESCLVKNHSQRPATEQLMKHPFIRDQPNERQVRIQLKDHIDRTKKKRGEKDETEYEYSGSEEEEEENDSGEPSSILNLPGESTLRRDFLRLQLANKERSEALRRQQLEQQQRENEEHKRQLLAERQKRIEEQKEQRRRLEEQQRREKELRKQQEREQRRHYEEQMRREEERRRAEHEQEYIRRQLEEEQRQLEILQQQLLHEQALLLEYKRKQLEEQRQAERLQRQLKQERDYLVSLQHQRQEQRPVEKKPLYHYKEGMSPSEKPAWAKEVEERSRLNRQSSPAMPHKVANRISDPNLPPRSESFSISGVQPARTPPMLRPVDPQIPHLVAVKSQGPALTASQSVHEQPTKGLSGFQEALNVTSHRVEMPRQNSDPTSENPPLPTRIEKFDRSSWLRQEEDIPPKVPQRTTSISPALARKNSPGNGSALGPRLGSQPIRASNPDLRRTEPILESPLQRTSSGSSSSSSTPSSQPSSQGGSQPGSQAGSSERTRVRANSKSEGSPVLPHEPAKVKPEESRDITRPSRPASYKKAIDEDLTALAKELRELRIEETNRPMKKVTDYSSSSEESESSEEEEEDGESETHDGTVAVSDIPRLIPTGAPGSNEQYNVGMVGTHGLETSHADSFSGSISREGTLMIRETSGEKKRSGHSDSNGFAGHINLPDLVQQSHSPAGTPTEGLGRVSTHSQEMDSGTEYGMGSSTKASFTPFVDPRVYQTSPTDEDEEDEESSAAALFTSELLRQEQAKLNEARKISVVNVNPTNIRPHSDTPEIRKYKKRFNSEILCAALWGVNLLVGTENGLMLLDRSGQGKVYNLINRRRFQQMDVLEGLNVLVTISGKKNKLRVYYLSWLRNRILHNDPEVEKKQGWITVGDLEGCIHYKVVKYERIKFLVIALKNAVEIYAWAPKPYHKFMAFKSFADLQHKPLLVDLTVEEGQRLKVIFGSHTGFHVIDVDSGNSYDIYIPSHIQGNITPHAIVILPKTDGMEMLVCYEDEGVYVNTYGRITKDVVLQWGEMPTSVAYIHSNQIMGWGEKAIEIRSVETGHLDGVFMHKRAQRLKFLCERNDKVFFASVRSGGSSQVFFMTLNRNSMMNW

Row | Compound | Inhibition of liver lipogenesis [1] | % Enzyme Activity (relative to DMSO controls) (TNIK) | % Enzyme Activity (relative to DMSO controls) (BMX/ETK) | Markers of fibrosis / UUO-induced renal fibrosis [2] | Renal T-lymphocyte infiltration (CD3 stain) [2] | Renal macrophage infiltration (F4/80 stain) [2] | Trichrome staining (kidney fibrosis) [2] | αSMA staining (kidney fibrosis) [2] | % Enzyme Activity (relative to DMSO controls) (GSK3b)
1 | CC(C)(CCCCc1ccc(CCCCC(C)(C)C(=O)O)cc1)C(=O)O [Compound I-1, 6-[4-(5-carboxy-5-methylhexyl)-phenyl]-2,2-dimethylhexanoic acid] | 69% | 101.58% | 51.72% | attenuated | no effect; also recorded: unaffected | significantly reduced; also recorded: similarly effective in decreasing | decreased | decreased | 82.73%
2 | CC(C)(CCCCc1cccc(CCCCC(C)(C)C(=O)O)c1)C(=O)O [Compound I-32, 6-[3-(5-carboxy-5-methylhexyl)-phenyl]-2,2-dimethylhexanoic acid] | ~50% | 99.68% | 52.97% | attenuated | no effect; also recorded: unaffected | significantly reduced; also recorded: similarly effective in decreasing | trend to reduction | trend to reduction | 72.67%
